In PubChem BioAssay AID272 (DTP/NCI, 2004):
Values joined by “and” are separate entries in the source; they are usually repeats but may differ in a detail not shown here. Equal values may be shown once. Inconclusive results are not listed.

Test system: Lewis lung carcinoma i.m., BDF1 mice, T/C %
Assay: NCI In Vivo Anticancer Drug Screen. Data for tumor model Lewis Lung Carcinoma (intramuscular) in B6D2F1 (BDF1) mice
Outline: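 Transplantable tumour model; readout survival or tumour size; value = treated (T) / vehicle control (C).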

[1] = endpoint: median survival time, dose: 0.1 mg/kg/injection, schedule: Q01DX011 (ip), vehicle: saline, higher = longer survival

Compound: CCOC(=O)c1nc(C)[nH]c(=O)c1C
- T/C (endpoint: median survival time, dose: 4.0 mg/kg/injection, schedule: Q01DX009 (ip), vehicle: water, higher = longer survival): 94 % of control
- T/C (endpoint: median survival time, dose: 8.0 mg/kg/injection, schedule: Q01DX009 (ip), vehicle: water, higher = longer survival): 109 % of control
- T/C (endpoint: median survival time, dose: 16.0 mg/kg/injection, schedule: Q01DX009 (ip), vehicle: water, higher = longer survival): 104 % of control
- T/C (endpoint: median survival time, dose: 64.0 mg/kg/injection, schedule: Q01DX009 (ip), vehicle: water, higher = longer survival): 100 % of control

Compound: CSc1ncnc2c1ncn2C1OC(CO)C(O)C1O (stereo not drawn)
- T/C (endpoint: mean tumor weight, dose: 3.75 mg/kg/injection, schedule: Q01DX011 (ip), vehicle: saline, higher = larger tumour): 86 % of control
- T/C (endpoint: mean tumor weight, dose: 7.5 mg/kg/injection, schedule: Q01DX011 (ip), vehicle: saline, higher = larger tumour): 63 % of control
- T/C (endpoint: median survival time, dose: 3.75 mg/kg/injection, schedule: Q01DX011 (ip), vehicle: saline, higher = longer survival): 100 % of control
- T/C (endpoint: median survival time, dose: 7.5 mg/kg/injection, schedule: Q01DX011 (ip), vehicle: saline, higher = longer survival): 90 % of control

Compound: O=C(C[n+]1cc(Br)cc2ccccc21)c1ccc(O)c(O)c1
- T/C (endpoint: mean tumor weight (est.), dose: 28.75 mg/kg/injection, schedule: Q01DX011 (ip), vehicle: saline, higher = larger tumour): 90 % of control
- T/C (endpoint: mean tumor weight (est.), dose: 57.5 mg/kg/injection, schedule: Q01DX011 (ip), vehicle: saline, higher = larger tumour): 95 % of control
- T/C (endpoint: mean tumor weight (est.), dose: 115.0 mg/kg/injection, schedule: Q01DX011 (ip), vehicle: saline, higher = larger tumour): 63 % of control
- T/C (endpoint: mean tumor weight (est.), dose: 230.0 mg/kg/injection, schedule: Q01DX011 (ip), vehicle: saline, higher = larger tumour): 52 % of control

Compound: CC(=O)O[C@]1(C(C)=O)CC[C@H]2[C@@H]3C[C@H](C)C4=CC(=O)CC[C@]4(C)[C@H]3CC[C@@]21C
- T/C (endpoint: median survival time, dose: 50.0 mg/kg/injection, schedule: Q01DX009 (ip), vehicle: Klucel (hydroxypropylcellulose) (HPC), higher = longer survival): 90 % of control
- T/C (endpoint: median survival time, dose: 50.0 mg/kg/injection, schedule: Q01DX011 (ip), vehicle: Klucel (hydroxypropylcellulose) (HPC), higher = longer survival): 104 % of control and 109 % of control
- T/C (endpoint: median survival time, dose: 100.0 mg/kg/injection, schedule: Q01DX009 (ip), vehicle: Klucel (hydroxypropylcellulose) (HPC), higher = longer survival): 107 % of control
- T/C (endpoint: median survival time, dose: 100.0 mg/kg/injection, schedule: Q01DX011 (ip), vehicle: Klucel (hydroxypropylcellulose) (HPC), higher = longer survival): 104 % of control
- T/C (endpoint: median survival time, dose: 200.0 mg/kg/injection, schedule: Q01DX009 (ip), vehicle: Klucel (hydroxypropylcellulose) (HPC), higher = longer survival): 110 % of control
- T/C (endpoint: median survival time, dose: 200.0 mg/kg/injection, schedule: Q01DX011 (ip), vehicle: Klucel (hydroxypropylcellulose) (HPC), higher = longer survival): 107 % of control and 119 % of control
- T/C (endpoint: median survival time, dose: 400.0 mg/kg/injection, schedule: Q01DX009 (ip), vehicle: Klucel (hydroxypropylcellulose) (HPC), higher = longer survival): 114 % of control
- T/C (endpoint: median survival time, dose: 400.0 mg/kg/injection, schedule: Q01DX011 (ip), vehicle: Klucel (hydroxypropylcellulose) (HPC), higher = longer survival): 109 % of control and 123 % of control
- T/C (endpoint: median survival time, dose: 800.0 mg/kg/injection, schedule: Q01DX009 (ip), vehicle: Klucel (hydroxypropylcellulose) (HPC), higher = longer survival): 90 % of control

Compound: COC(=O)C[C@](O)(CCCC(C)(C)O)C(=O)O[C@@H]1C(OC)=C[C@]23CCCN2CCc2cc4c(cc2[C@H]13)OCO4
- T/C (endpoint: mean tumor weight (est.), dose: 0.25 mg/kg/injection, schedule: Q01DX011 (ip), vehicle: saline, higher = larger tumour): 60 % of control
- T/C (endpoint: mean tumor weight (est.), dose: 0.5 mg/kg/injection, schedule: Q01DX011 (ip), vehicle: saline, higher = larger tumour): 57 % of control
- T/C (endpoint: median survival time, dose: 0.25 mg/kg/injection, schedule: Q01DX011 (ip), vehicle: saline, higher = longer survival): 93 % of control

Compound: COc1cc(C(=O)OC2CC34CCNC35CC(OC5(OC)C2O)c2cc3c(cc24)OCO3)ccc1O (stereo not drawn)
- T/C (endpoint: mean tumor weight, dose: 1.0 mg/kg/injection, schedule: Q01DX011 (ip), vehicle: carboxymethylcellulose (CMC), higher = larger tumour): 81 % of control
- T/C (endpoint: mean tumor weight, dose: 2.0 mg/kg/injection, schedule: Q01DX011 (ip), vehicle: carboxymethylcellulose (CMC), higher = larger tumour): 70 % of control
- T/C (endpoint: mean tumor weight, dose: 4.0 mg/kg/injection, schedule: Q01DX011 (ip), vehicle: carboxymethylcellulose (CMC), higher = larger tumour): 49 % of control
- T/C (endpoint: median survival time, dose: 2.0 mg/kg/injection, schedule: Q01DX011 (ip), vehicle: carboxymethylcellulose (CMC), higher = longer survival): 91 % of control
- T/C (endpoint: median survival time, dose: 4.0 mg/kg/injection, schedule: Q01DX011 (ip), vehicle: carboxymethylcellulose (CMC), higher = longer survival): 86 % of control

Compound: CCCCCCCCCCCCn1c(C)nc2ccccc21
- T/C (endpoint: mean tumor weight (est.), dose: 0.63 mg/kg/injection, schedule: Q01DX011 (ip), vehicle: saline, higher = larger tumour): 84 % of control
- T/C (endpoint: mean tumor weight (est.), dose: 1.25 mg/kg/injection, schedule: Q01DX011 (ip), vehicle: saline, higher = larger tumour): 89 % of control
- T/C (endpoint: median survival time, dose: 0.63 mg/kg/injection, schedule: Q01DX011 (ip), vehicle: saline, higher = longer survival): 104 % of control
- T/C (endpoint: median survival time, dose: 1.25 mg/kg/injection, schedule: Q01DX011 (ip), vehicle: saline, higher = longer survival): 98 % of control

Compound: CC1CC(C)(O)CC(C(O)CC2CC(=O)NC(=O)C2)C1=O (stereo not drawn)
- T/C (endpoint: mean tumor weight, dose: 0.1 mg/kg/injection, schedule: Q01DX011 (ip), vehicle: saline, higher = larger tumour): 56 % of control
- T/C [1]: 90 % of control

Compound: N=[N+]=CC(=O)OCC(N)C(=O)O (stereo not drawn)
- T/C (endpoint: mean tumor weight, dose: 2.0 mg/kg/injection, schedule: Q01DX011 (ip), vehicle: saline, higher = larger tumour): 94 % of control
- T/C (endpoint: mean tumor weight, dose: 4.0 mg/kg/injection, schedule: Q01DX011 (ip), vehicle: saline, higher = larger tumour): 71 % of control
- T/C (endpoint: mean tumor weight, dose: 8.0 mg/kg/injection, schedule: Q01DX011 (ip), vehicle: saline, higher = larger tumour): 27 % of control
- T/C (endpoint: median survival time, dose: 2.0 mg/kg/injection, schedule: Q01DX011 (ip), vehicle: saline, higher = longer survival): 96 % of control and 107 % of control
- T/C (endpoint: median tumor weight (est.), dose: 2.0 mg/kg/injection, schedule: Q01DX011 (ip), vehicle: saline, higher = larger tumour): 79 % of control
- T/C (endpoint: median tumor weight (est.), dose: 8.0 mg/kg/injection, schedule: Q01DX011 (ip), vehicle: saline, higher = larger tumour): 50 % of control

Compound: CC1([CH2][Hg][I])CS(=O)(=O)CC(C)([CH2][Hg][I])O1 (stereo not drawn)
- T/C (endpoint: mean tumor weight (est.), dose: 2.5 mg/kg/injection, schedule: Q01DX011 (ip), vehicle: saline with Tween-80, higher = larger tumour): 82 % of control
- T/C (endpoint: mean tumor weight (est.), dose: 5.0 mg/kg/injection, schedule: Q01DX011 (ip), vehicle: saline with Tween-80, higher = larger tumour): 89 % of control
- T/C (endpoint: mean tumor weight (est.), dose: 10.0 mg/kg/injection, schedule: Q01DX011 (ip), vehicle: saline with Tween-80, higher = larger tumour): 49 % of control
- T/C (endpoint: mean tumor weight (est.), dose: 20.0 mg/kg/injection, schedule: Q01DX011 (ip), vehicle: saline with Tween-80, higher = larger tumour): 47 % of control
- T/C (endpoint: median survival time, dose: 2.5 mg/kg/injection, schedule: Q01DX011 (ip), vehicle: saline with Tween-80, higher = longer survival): 94 % of control
- T/C (endpoint: median survival time, dose: 5.0 mg/kg/injection, schedule: Q01DX011 (ip), vehicle: saline with Tween-80, higher = longer survival): 98 % of control
- T/C (endpoint: median survival time, dose: 10.0 mg/kg/injection, schedule: Q01DX011 (ip), vehicle: saline with Tween-80, higher = longer survival): 112 % of control
- T/C (endpoint: median survival time, dose: 20.0 mg/kg/injection, schedule: Q01DX011 (ip), vehicle: saline with Tween-80, higher = longer survival): 100 % of control

Compound: CC(=O)OC1CC(OC2C(O)CC(OC3C(O)CC(OC4CCC5(C)C(CCC6C5CCC5(C)C(C7=CC(=O)OC7)C(O)CC65O)C4)OC3C)OC2C)OC(C)C1OC1OC(CO)C(O)C(O)C1O (stereo not drawn)
- T/C (endpoint: median survival time, dose: 3.0 mg/kg/injection, schedule: Q01DX011 (ip), vehicle: saline, higher = longer survival): 106 % of control
- T/C (endpoint: median survival time, dose: 6.0 mg/kg/injection, schedule: Q01DX011 (ip), vehicle: saline, higher = longer survival): 110 % of control
- T/C (endpoint: median survival time, dose: 12.0 mg/kg/injection, schedule: Q01DX011 (ip), vehicle: saline, higher = longer survival): 102 % of control
- T/C (endpoint: median survival time, dose: 24.0 mg/kg/injection, schedule: Q01DX011 (ip), vehicle: saline, higher = longer survival): 104 % of control
- T/C (endpoint: median survival time, dose: 48.0 mg/kg/injection, schedule: Q01DX011 (ip), vehicle: saline, higher = longer survival): 102 % of control

Compound: N=[N+]=CC(=O)CCC(NC(=O)C(CCC(=O)C=[N+]=N)NC(=O)CCC(N)C(=O)O)C(=O)O (stereo not drawn)
- T/C (endpoint: mean tumor weight, dose: 7.5 micrograms/kg/injection, schedule: Q01DX011 (ip), vehicle: water, higher = larger tumour): 63 % of control
- T/C (endpoint: mean tumor weight, dose: 15.0 micrograms/kg/injection, schedule: Q01DX011 (ip), vehicle: water, higher = larger tumour): 66 % of control
- T/C (endpoint: mean tumor weight, dose: 30.0 micrograms/kg/injection, schedule: Q01DX011 (ip), vehicle: water, higher = larger tumour): 60 % of control
- T/C (endpoint: mean tumor weight, dose: 60.0 micrograms/kg/injection, schedule: Q01DX011 (ip), vehicle: water, higher = larger tumour): 63 % of control
- T/C [1]: 88 % of control and 101 % of control
- T/C (endpoint: median survival time, dose: 0.2 mg/kg/injection, schedule: Q01DX011 (ip), vehicle: saline, higher = longer survival): 106 % of control
- T/C (endpoint: median survival time, dose: 0.4 mg/kg/injection, schedule: Q01DX011 (ip), vehicle: saline, higher = longer survival): 101 % of control and 103 % of control
- T/C (endpoint: median survival time, dose: 0.8 mg/kg/injection, schedule: Q01DX011 (ip), vehicle: saline, higher = longer survival): 87 % of control
- T/C (endpoint: median survival time, dose: 1.6 mg/kg/injection, schedule: Q01DX011 (ip), vehicle: saline, higher = longer survival): 87 % of control
- T/C (endpoint: median survival time, dose: 7.5 micrograms/kg/injection, schedule: Q01DX011 (ip), vehicle: water, higher = longer survival): 104 % of control
- T/C (endpoint: median survival time, dose: 12.5 micrograms/kg/injection, schedule: Q01DX009 (ip), vehicle: Klucel (hydroxypropylcellulose) (HPC), higher = longer survival): 97 % of control
- T/C (endpoint: median survival time, dose: 15.0 micrograms/kg/injection, schedule: Q01DX011 (ip), vehicle: water, higher = longer survival): 106 % of control
- T/C (endpoint: median survival time, dose: 25.0 micrograms/kg/injection, schedule: Q01DX009 (ip), vehicle: Klucel (hydroxypropylcellulose) (HPC), higher = longer survival): 98 % of control
- T/C (endpoint: median survival time, dose: 30.0 micrograms/kg/injection, schedule: Q01DX011 (ip), vehicle: water, higher = longer survival): 97 % of control
- T/C (endpoint: median survival time, dose: 50.0 micrograms/kg/injection, schedule: Q01DX009 (ip), vehicle: Klucel (hydroxypropylcellulose) (HPC), higher = longer survival): 90 % of control
- T/C (endpoint: median survival time, dose: 60.0 micrograms/kg/injection, schedule: Q01DX011 (ip), vehicle: water, higher = longer survival): 102 % of control
- T/C (endpoint: median survival time, dose: 100.0 micrograms/kg/injection, schedule: Q01DX009 (ip), vehicle: Klucel (hydroxypropylcellulose) (HPC), higher = longer survival): 98 % of control

Compound: CCCSc1ncnc2nc[nH]c12
- T/C (endpoint: mean tumor weight, dose: 25.0 mg/kg/injection, schedule: Q01DX011 (ip), vehicle: other, higher = larger tumour): 80 % of control
- T/C (endpoint: median survival time, dose: 25.0 mg/kg/injection, schedule: Q01DX011 (ip), vehicle: other, higher = longer survival): 102 % of control
